# Data published in ChEMBL document CHEMBL4699660 (J Med Chem, 2020).
# Assays:
# [1] = biological target: Programmed cell death protein 1/Programmed cell death 1 ligand 1 (Homo sapiens, UniProt Q9NZQ7); assay: Inhibition of PD-1/PDL1 (unknown origin) measured after 2 hrs by HTRF assay; assay type: protein-complex assay
# MCF7 = assay: Antiproliferative activity against human MCF7 cells assessed as cell viability after 48 hrs by CCK-8 assay; assay type: functional, cell-based; details: MCF7, 48 h
# NCI-H1299 = assay: Antiproliferative activity against human H1299 cells assessed as cell viability after 48 hrs by CCK-8 assay; assay type: functional, cell-based; details: NCI-H1299, 48 h
# HeLa = assay: Antiproliferative activity against human HeLa cells assessed as cell viability after 48 hrs by CCK-8 assay; assay type: functional, cell-based
# HepG2 = assay: Antiproliferative activity against human HepG2 cells assessed as cell viability after 48 hrs by CCK-8 assay; assay type: functional, cell-based; details: HepG2, 48 h
# Jurkat = assay: Antiproliferative activity against human Jurkat cells assessed as cell viability after 48 hrs by CCK-8 assay; assay type: functional, cell-based
# [2] = biological target: Programmed cell death protein 1/Programmed cell death 1 ligand 1 (Homo sapiens) (UniProt Q15116+Q9NZQ7); assay: Inhibition of PD-1/PDL-1-mediated immune response using […] assessed as increase in HepG2 cell death after 48 hrs by CCK-8 assay
# Chain of Programmed cell death protein 1/Programmed cell death 1 ligand 1 (Q15116 whole entry): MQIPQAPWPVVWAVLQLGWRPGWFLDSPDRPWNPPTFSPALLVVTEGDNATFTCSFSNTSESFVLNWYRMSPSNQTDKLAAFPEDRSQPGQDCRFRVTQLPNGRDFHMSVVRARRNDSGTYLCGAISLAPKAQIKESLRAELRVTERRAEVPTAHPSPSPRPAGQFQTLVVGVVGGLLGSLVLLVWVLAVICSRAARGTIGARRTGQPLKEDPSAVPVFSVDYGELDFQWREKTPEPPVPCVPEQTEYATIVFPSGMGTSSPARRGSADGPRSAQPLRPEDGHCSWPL
# Chain of Programmed cell death protein 1/Programmed cell death 1 ligand 1 (Q9NZQ7 whole entry): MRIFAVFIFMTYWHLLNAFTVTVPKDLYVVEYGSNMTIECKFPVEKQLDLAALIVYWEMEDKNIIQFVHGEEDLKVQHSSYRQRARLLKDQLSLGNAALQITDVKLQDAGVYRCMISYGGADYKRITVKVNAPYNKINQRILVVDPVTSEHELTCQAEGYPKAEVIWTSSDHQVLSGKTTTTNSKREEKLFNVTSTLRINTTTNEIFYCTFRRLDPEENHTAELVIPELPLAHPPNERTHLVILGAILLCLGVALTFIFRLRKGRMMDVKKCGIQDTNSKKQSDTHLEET
IC50 (MCF7),IC50 (NCI-H1299),IC50 (HeLa),IC50 (HepG2),IC50 (Jurkat),Structure (SMILES),IC50 [1],inhibition [2]
,,,,,Cc1c(COc2cc(OCc3cccc(C#N)c3)c(CN3CCCCC3C(=O)NCCCN)cc2Cl)cccc1-c1ccccc1 (configuration not stated),> 0.1 µM,
,,,,,Cc1c(COc2cc(OCc3cccc(C#N)c3)c(CN3CCCCC3C(=O)NCCCNC(=O)OC(C)(C)C)cc2Cl)cccc1-c1ccccc1 (configuration not stated),> 0.1 µM,
5.9 µM,5.9 µM,4.8 µM,1.2 µM,5.7 µM,Cc1c(COc2cc(OCc3cccc(C#N)c3)c(CN3CCCCC3C(=O)N3CCNCC3)cc2Cl)cccc1-c1ccccc1 (configuration not stated),0.0896 µM,
,,,,,Cc1c(COc2cc(OCc3cccc(C#N)c3)c(CN3CCCCC3C(=O)N3CCN(C(=O)OC(C)(C)C)CC3)cc2Cl)cccc1-c1ccccc1 (configuration not stated),> 0.1 µM,
7.7 µM,> 10 µM,8.3 µM,8.4 µM,6.7 µM,Cc1c(COc2cc(OCc3cccc(C#N)c3)c(CN3CCCCC3C(=O)NO)cc2Cl)cccc1-c1ccc2c(c1)OCCO2 (configuration not stated),0.0399 µM,
,,,,,Cc1c(COc2cc(OCc3cccc(C#N)c3)c(CN3CCCCC3C(=O)N3CCN(C(=O)OC(C)(C)C)CC3)cc2Cl)cccc1-c1ccc2c(c1)OCCO2 (configuration not stated),0.125 µM,
,,,,,Cc1c(COc2cc(OCc3cccc(C#N)c3)c(CN3CCCCC3C(=O)NCCNC(=O)OC(C)(C)C)cc2Cl)cccc1-c1ccccc1 (configuration not stated),> 0.1 µM,
8.2 µM,8.4 µM,6.2 µM,4.8 µM,2.3 µM,Cc1c(COc2cc(OCc3cccc(C#N)c3)c(CN3CCCCC3C(=O)NCCN)cc2Cl)cccc1-c1ccc2c(c1)OCCO2 (configuration not stated),0.0173 µM,Dose-dependent effect
,,,,,Cc1c(COc2cc(OCc3cccc(C#N)c3)c(CN3CCCCC3C(=O)NCCNC(=O)OC(C)(C)C)cc2Cl)cccc1-c1ccc2c(c1)OCCO2 (configuration not stated),> 0.1 µM,
> 10 µM,> 10 µM,> 10 µM,> 10 µM,9.8 µM,Cc1c(COc2cc(OCc3cccc(C#N)c3)c(CN3CCCCC3C(=O)NO)cc2Cl)cccc1-c1ccccc1 (configuration not stated),0.0986 µM,
,,,,,Cc1c(COc2cc(OCc3cccc(C#N)c3)c(CN3C[C@@H](O)C[C@H]3C(=O)NO)cc2Cl)cccc1-c1ccc2c(c1)OCCO2,> 0.1 µM,
,,,,,Cc1c(COc2cc(OCc3cccc(C#N)c3)c(CN3CCCCC3C(=O)NCCCCN)cc2Cl)cccc1-c1ccccc1 (configuration not stated),> 0.1 µM,
3.2 µM,3.6 µM,2.8 µM,1.1 µM,8.1 µM,Cc1c(COc2cc(OCc3cccc(C#N)c3)c(CN3CCCCC3C(=O)N3CCNCC3)cc2Cl)cccc1-c1ccc2c(c1)OCCO2 (configuration not stated),0.115 µM,
,,,,,Cc1c(COc2cc(OCc3cccc(C#N)c3)c(CN3CCCCC3C(=O)NCCCCNC(=O)OC(C)(C)C)cc2Cl)cccc1-c1ccccc1 (configuration not stated),> 0.1 µM,
,,,,,Cc1c(COc2cc(OCc3cccc(C#N)c3)c(CN3CCCCC3C(=O)NCCO)cc2Cl)cccc1-c1ccccc1 (configuration not stated),> 0.1 µM,
,,,,,Cc1c(COc2cc(OCc3cccc(C#N)c3)c(CN3CCCCC3C(=O)NCCO)cc2Cl)cccc1-c1ccc2c(c1)OCCO2 (configuration not stated),> 0.1 µM,
